# Like-named read-outs stand apart in the source and are kept apart here.
# How the values were obtained:
# waterhemp = assay: Test C pre-/postemergence herbicide test; type: in vivo, Amaranthus rudis
# How it was run: (§1)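 Visual rating, 0 (no effect) to 100 (complete control), versus untreated controls after 13 to 15 days in the greenhouse. Pre: seeds in loam/sand, sprayed at planting. Post: 1- to 4-leaf plants (2 to 18 cm) in peat-based mix. Compounds in non-phytotoxic solvent plus surfactant.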
# oilseed rape = assay: Test C pre-/postemergence herbicide test; type: in vivo, Brassica napus
# How it was run: as §1
# sedge, umbrella = assay: Test B flooded paddy test; type: in vivo, Cyperus difformis; settings: Flood, scale of 0 to 100 where 0 is no effect and 100 is complete control
# How it was run: (§2)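 Plants were grown to the 2-leaf stage, then pots were flooded to 3 cm above the soil and compound was applied directly into the paddy water, with that depth held throughout. After 13 to 15 days in a greenhouse, injury was rated visually against untreated controls on a 0 to 100 scale (100 = complete control).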
# soybean = assay: Test C pre-/postemergence herbicide test; type: in vivo, Glycine max
# How it was run: as §1
# pigweed = assay: Test A pre-/postemergence herbicide test; type: in vivo, Amaranthus retroflexus
# How it was run: (§3)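 Seeds sown in loam soil/sand blend received a preemergence directed soil spray of test chemical in non-phytotoxic solvent with surfactant; postemergence plants (2–10 cm, one- to two-leaf stage) were sprayed with the same formulation. After about 10 days in greenhouse, injury was rated visually versus untreated controls, 0 (no effect) to 100 (complete control).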
# wheat = assay: Test A pre-/postemergence herbicide test; type: in vivo, Triticum aestivum
# How it was run: as §3
# ragweed = assay: Test C pre-/postemergence herbicide test; type: in vivo, Ambrosia elatior
# How it was run: as §1
# giant foxtail = assay: Test A pre-/postemergence herbicide test; type: in vivo, Setaria faberii
# How it was run: as §3
# nutsedge, yellow = assay: Test C pre-/postemergence herbicide test; type: in vivo, Cyperus esculentus
# How it was run: as §1
# ducksalad = assay: Test B flooded paddy test; type: in vivo, Heteranthera limosa; settings: Flood, scale of 0 to 100 where 0 is no effect and 100 is complete control
# How it was run: as §2
# wheat (winter wheat) = assay: Test C pre-/postemergence herbicide test; type: in vivo, Triticum aestivum
# How it was run: as §1
# oat, wild = assay: Test C pre-/postemergence herbicide test; type: in vivo, Avena fatua; settings: Postemergence
# How it was run: as §1
# [1] = Postemergence, 31 g ai/ha, scale 0 to 100 (0 no effect, 100 complete control)
# [2] = Postemergence, 62 g ai/ha, scale 0 (no effect) to 100 (complete control)
# [3] = Postemergence, 125 g ai/ha, scale 0 to 100 (0 no effect, 100 complete control)
# [4] = Postemergence, 250 g ai/ha, scale 0 to 100 (0 no effect, 100 complete control)
# [5] = Preemergence, 31 g ai/ha, scale 0 to 100, 0 is no effect and 100 is complete control
# [6] = Preemergence, 62 g ai/ha, scale 0 to 100 (0 no effect, 100 complete control)
# [7] = Preemergence, 125 g ai/ha, scale 0 to 100 (0 no effect, 100 complete control)
# [8] = 125 g ai/ha, visual rating, 0 to 100 scale, 0 no effect, 100 complete control, approximately 10 days, preemergence
# [9] = Postemergence, 125 g ai/ha, 0 to 100 scale, 0 is no effect, 100 is complete control
# [10] = preemergence, 500 g ai/ha, 0 to 100 scale, 0 is no effect and 100 is complete control
# [11] = 125 g ai/ha, scale 0 to 100 (0 no effect, 100 complete control)
# [12] = 250 g ai/ha, scale 0 to 100 (0 no effect, 100 complete control)
# [13] = Postemergence, 31 g ai/ha, scale 0 (no effect) to 100 (complete control)
# [14] = Postemergence, 62 g ai/ha, scale 0 to 100 (0 no effect, 100 complete control)
# [15] = Preemergence, 62 g ai/ha, scale 0 to 100
# [16] = Preemergence, 125 g ai/ha, visual rating on 0 to 100 scale (0 no effect, 100 complete control)
smiles,measurement,setting,value
O=C1NCC(c2cccc(OC(F)F)c2)C1C(=O)Nc1cccc(F)c1F (stereo not drawn) [Compound 224],"Plant response rating, Waterhemp",waterhemp; [1],25
same,"Plant response rating, Waterhemp",waterhemp; [2],35
same,"Plant response rating, Waterhemp",waterhemp; [3],30
same,"Plant response rating, Waterhemp",waterhemp; [4],30
same,Waterhemp plant response rating,waterhemp; [5],75
same,Waterhemp plant response rating,waterhemp; [6],5
same,"Plant response rating, Waterhemp",waterhemp; [7],70
same,"Plant response rating (scale of 0 to 100), Waterhemp","waterhemp; Preemergence, 250 g ai/ha",80
same,"Plant response rating, Oilseed Rape",oilseed rape; [1],0
same,"Plant response rating, Oilseed Rape",oilseed rape; [2],15
same,"Plant response rating, Oilseed Rape",oilseed rape; [3],20
same,"Plant response rating, Oilseed Rape",oilseed rape; [4],5
same,Oilseed Rape plant response rating,oilseed rape; [5],0
same,Oilseed Rape plant response rating,oilseed rape; [6],5
same,"Plant response rating, Oilseed Rape",oilseed rape; [7],70
same,"Plant response rating (scale of 0 to 100), Oilseed Rape","oilseed rape; Preemergence, 250 g ai/ha",85
same,"Plant response rating, Sedge, Umbrella","sedge, umbrella; 500 g ai/ha",0
same,"Plant response rating, Soybean",soybean; [1],0
same,"Plant response rating, Soybean",soybean; [2],10
same,"Plant response rating, Soybean",soybean; [3],5
same,"Plant response rating, Soybean",soybean; [4],5
same,Soybean plant response rating,soybean; [5],0
same,Soybean plant response rating,soybean; [6],100
same,"Plant response rating, Soybean",soybean; [7],0
same,"Plant response rating (scale of 0 to 100), Soybean","soybean; Preemergence, 250 g ai/ha",5
same,"Plant response rating, Pigweed",pigweed; [8],80
same,"Plant response rating, Pigweed",pigweed; [9],60
same,"Pigweed plant response rating (0 to 100 scale, 0 is no effect, 100 is complete control)","pigweed; Postemergence, 500 g ai/ha",80
same,"Plant response rating, Pigweed",pigweed; [10],80
same,"Plant response rating, Wheat",wheat; [9],50
same,"Wheat plant response rating (0 to 100 scale, 0 is no effect, 100 is complete control)","wheat; Postemergence, 500 g ai/ha",60
same,"Plant response rating, Ragweed",ragweed; [1],20
same,"Plant response rating, Ragweed",ragweed; [2],65
same,"Plant response rating, Ragweed",ragweed; [3],45
same,"Plant response rating, Ragweed",ragweed; [4],80
same,Ragweed plant response rating,ragweed; [5],10
same,Ragweed plant response rating,ragweed; [6],40
same,"Plant response rating, Ragweed",ragweed; [7],100
same,"Plant response rating (scale of 0 to 100), Ragweed","ragweed; Preemergence, 250 g ai/ha",100
same,"Plant response rating, Foxtail, Giant",giant foxtail; [8],90
same,"Plant response rating, Foxtail, Giant",giant foxtail; [9],80
same,"Foxtail, Giant plant response rating (0 to 100 scale, 0 is no effect, 100 is complete control)","giant foxtail; Postemergence, 500 g ai/ha",80
same,"Plant response rating, Foxtail, Giant",giant foxtail; [10],90
same,"Plant response rating, Nutsedge, Yellow","nutsedge, yellow; [1]",0
same,"Plant response rating, Nutsedge, Yellow","nutsedge, yellow; [2]",0
same,"Plant response rating, Nutsedge, Yellow","nutsedge, yellow; [3]",0
same,"Plant response rating, Nutsedge, Yellow","nutsedge, yellow; [4]",0
same,"Nutsedge, Yellow plant response rating","nutsedge, yellow; [5]",0
same,"Nutsedge, Yellow plant response rating","nutsedge, yellow; [6]",10
same,"Plant response rating, Nutsedge, Yellow","nutsedge, yellow; [7]",0
same,"Plant response rating (scale of 0 to 100), Nutsedge, Yellow","nutsedge, yellow; Preemergence, 250 g ai/ha",0
same,"Plant response rating, Ducksalad",ducksalad; 500 g ai/ha,100
same,"Plant response rating, Wheat",wheat (winter wheat); [1],0
same,"Plant response rating, Wheat",wheat (winter wheat); [2],0
same,"Plant response rating, Wheat",wheat (winter wheat); [3],5
same,"Plant response rating, Wheat",wheat (winter wheat); [4],5
same,Wheat plant response rating,wheat (winter wheat); [5],0
same,Wheat plant response rating,wheat (winter wheat); [6],0
same,"Plant response rating, Wheat",wheat (winter wheat); [7],0
same,"Plant response rating (scale of 0 to 100), Wheat","wheat (winter wheat); Preemergence, 250 g ai/ha",45
same,"Plant response rating, Oat, Wild","oat, wild; 31 g ai/ha, scale 0 to 100 (0 no effect, 100 complete control)",0
same,"Plant response rating, Oat, Wild","oat, wild; 62 g ai/ha, scale 0 (no effect) to 100 (complete control)",0
same,"Plant response rating, Oat, Wild","oat, wild; [11]",5
same,"Plant response rating, Oat, Wild","oat, wild; [12]",15
"O=C1NCC(c2ccc(C(F)(F)F)cc2)C1C(=O)Nc1cccc(F)c1F (stereo not drawn) [Compound 80, N-(2,3-difluorophenyl)-2-oxo-4-[4-(trifluoromethyl)phenyl]-3-pyrrolidinecarboxamide]","Plant response rating, Waterhemp",waterhemp; [13],30
same,"Plant response rating, Waterhemp",waterhemp; [14],45
same,"Plant response rating, Waterhemp",waterhemp; [3],45
same,"Plant response rating, Waterhemp",waterhemp; [4],65
same,Waterhemp plant response rating,waterhemp; [5],15
same,"Plant response rating, Waterhemp",waterhemp; [15],80
same,"Plant response rating, Waterhemp",waterhemp; [7],90
same,"Plant response rating (scale of 0 to 100), Waterhemp","waterhemp; Preemergence, 250 g ai/ha",90
same,"Plant response rating, Oilseed Rape",oilseed rape; [13],0
same,"Plant response rating, Oilseed Rape",oilseed rape; [14],0
same,"Plant response rating, Oilseed Rape",oilseed rape; [3],20
same,"Plant response rating, Oilseed Rape",oilseed rape; [4],60
same,Oilseed Rape plant response rating,oilseed rape; [5],5
same,"Plant response rating, Oilseed Rape",oilseed rape; [15],85
same,"Plant response rating, Oilseed Rape",oilseed rape; [7],90
same,"Plant response rating (scale of 0 to 100), Oilseed Rape","oilseed rape; Preemergence, 250 g ai/ha",90
same,"Plant response rating, Sedge, Umbrella","sedge, umbrella; 250 g ai/ha",0
same,"Plant response rating, Soybean",soybean; [13],0
same,"Plant response rating, Soybean",soybean; [14],5
same,"Plant response rating, Soybean",soybean; [3],5
same,"Plant response rating, Soybean",soybean; [4],25
same,Soybean plant response rating,soybean; [5],0
same,"Plant response rating, Soybean",soybean; [15],0
same,"Plant response rating, Soybean",soybean; [7],0
same,"Plant response rating (scale of 0 to 100), Soybean","soybean; Preemergence, 250 g ai/ha",0
same,pest or weed control at 125 g/ha,"pigweed; Amaranthus retroflexus, post-emergence, 240 h, Postemergence, 125 g ai/ha, 0 to 100 scale, 0 no effect, 100 complete control, read-out: Plant response rating, Pigweed",60%
same,pest or weed control at 500 g/ha,"pigweed; Amaranthus retroflexus, post-emergence, 240 h, Postemergence, 500 g ai/ha, 0 to 100 scale (0 no effect, 100 complete control), read-out: Plant response rating, Pigweed",70%
same,pest or weed control at 500 g/ha,"pigweed; Amaranthus retroflexus, pre-emergence, 240 h, preemergence, 500 g ai/ha, 0 to 100 scale, read-out: Plant response rating, Pigweed",80%
same,Pigweed plant response rating,pigweed; [16],60
same,Wheat plant response rating,wheat; [16],0
same,plant injury at 125 g/ha,"wheat; Triticum aestivum, post-emergence, 240 h, Postemergence, 125 g ai/ha, 0 to 100 scale, 0 no effect, 100 complete control, read-out: Plant response rating, Wheat",40%
same,plant injury at 500 g/ha,"wheat; Triticum aestivum, post-emergence, 240 h, Postemergence, 500 g ai/ha, 0 to 100 scale (0 no effect, 100 complete control), read-out: Plant response rating, Wheat",50%
same,plant injury at 500 g/ha,"wheat; Triticum aestivum, pre-emergence, 240 h, preemergence, 500 g ai/ha, 0 to 100 scale, read-out: Plant response rating, Wheat",20%
same,"Plant response rating, Ragweed",ragweed; [13],30
same,"Plant response rating, Ragweed",ragweed; [14],30
same,"Plant response rating, Ragweed",ragweed; [3],30
same,"Plant response rating, Ragweed",ragweed; [4],30
same,"Foxtail, Giant plant response rating",giant foxtail; [16],90
same,pest or weed control at 125 g/ha,"giant foxtail; Setaria faberi, post-emergence, 240 h, Postemergence, 125 g ai/ha, 0 to 100 scale, 0 no effect, 100 complete control, read-out: Plant response rating, Foxtail, Giant",80%
same,pest or weed control at 500 g/ha,"giant foxtail; Setaria faberi, post-emergence, 240 h, Postemergence, 500 g ai/ha, 0 to 100 scale (0 no effect, 100 complete control), read-out: Plant response rating, Foxtail, Giant",80%
same,pest or weed control at 500 g/ha,"giant foxtail; Setaria faberi, pre-emergence, 240 h, preemergence, 500 g ai/ha, 0 to 100 scale, read-out: Plant response rating, Foxtail, Giant",90%
same,"Plant response rating, Nutsedge, Yellow","nutsedge, yellow; [13]",0
same,"Plant response rating, Nutsedge, Yellow","nutsedge, yellow; [14]",0
same,"Plant response rating, Nutsedge, Yellow","nutsedge, yellow; [3]",0
same,"Plant response rating, Nutsedge, Yellow","nutsedge, yellow; [4]",0
same,"Nutsedge, Yellow plant response rating","nutsedge, yellow; [5]",0
same,"Plant response rating, Nutsedge, Yellow","nutsedge, yellow; [15]",0
same,"Plant response rating, Nutsedge, Yellow","nutsedge, yellow; [7]",0
same,"Plant response rating (scale of 0 to 100), Nutsedge, Yellow","nutsedge, yellow; Preemergence, 250 g ai/ha",10
same,"Plant response rating, Ducksalad",ducksalad; 250 g ai/ha,75
same,"Plant response rating, Wheat",wheat (winter wheat); [13],0
same,"Plant response rating, Wheat",wheat (winter wheat); [14],0
same,"Plant response rating, Wheat",wheat (winter wheat); [3],0
same,"Plant response rating, Wheat",wheat (winter wheat); [4],0
same,Wheat plant response rating,wheat (winter wheat); [5],0
same,"Plant response rating, Wheat",wheat (winter wheat); [15],5
same,"Plant response rating, Wheat",wheat (winter wheat); [7],80
same,"Plant response rating (scale of 0 to 100), Wheat","wheat (winter wheat); Preemergence, 250 g ai/ha",80
same,"Plant response rating, Oat, Wild","oat, wild; 31 g ai/ha, scale 0 (no effect) to 100 (complete control)",0
same,"Plant response rating, Oat, Wild","oat, wild; 62 g ai/ha, scale 0 to 100 (0 no effect, 100 complete control)",0
same,"Plant response rating, Oat, Wild","oat, wild; [11]",0
same,"Plant response rating, Oat, Wild","oat, wild; [12]",0

# Reference: patent US10294202B2, “Pyrrolidinones as herbicides” (FMC Corporation, priority 2013, dated 2019)
